Experimental data taken from patent US6762171B1, “Fatty acid CoA thioester inhibitory substance of PPARα and PPARγ” (Kyorin Pharmaceutical Co, Ltd., priority 2002, dated 2004).

Columns and labels:
[1] = target: T1, human-type PPAR α ligand-binding domain (Homo sapiens, UniProt Q07869); assay: Competition binding with [3H]KRP-297 to 6×His-hPPARα ligand-binding domain; conditions: for Binding to the ligand-binding domain of PPARα: competition with 100 nM [3H]KRP-297, test concentration not given; for Binding to PPAR α ligand-binding domain, in words: competition with [3H]KRP-297
T1 construct: made in house; host or cells: Escherichia coli
T1 sequence (Q07869 239-466 limits assumed): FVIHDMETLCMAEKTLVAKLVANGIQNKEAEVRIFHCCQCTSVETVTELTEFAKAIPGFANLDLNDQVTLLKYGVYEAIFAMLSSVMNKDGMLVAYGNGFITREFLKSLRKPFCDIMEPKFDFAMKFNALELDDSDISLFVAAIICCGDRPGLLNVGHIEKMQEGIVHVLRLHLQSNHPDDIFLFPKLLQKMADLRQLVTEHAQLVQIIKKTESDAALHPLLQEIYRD
Text: (§1) Proteins (6×His-hPPARs LBD) tagged 6-copy histidine to the side of N-termini in the ligand-binding domains of human-type PPAR α and PPAR γ were expressed in Escherichia coli, respectively, and purified through a nickel column.

[2] = target: T2, human-type PPAR γ ligand-binding domain (Homo sapiens, UniProt P37231); assay: Competition binding with [3H]KRP-297 to 6×His-hPPARγ ligand-binding domain; conditions: for Binding to the ligand-binding domain of PPARγ: competition with 100 nM [3H]KRP-297, test concentration not given; for Binding to PPAR γ ligand-binding domain, in words: competition with [3H]KRP-297
T2 construct: made in house; host or cells: Escherichia coli
T2 sequence (P37231 238-503 limits assumed): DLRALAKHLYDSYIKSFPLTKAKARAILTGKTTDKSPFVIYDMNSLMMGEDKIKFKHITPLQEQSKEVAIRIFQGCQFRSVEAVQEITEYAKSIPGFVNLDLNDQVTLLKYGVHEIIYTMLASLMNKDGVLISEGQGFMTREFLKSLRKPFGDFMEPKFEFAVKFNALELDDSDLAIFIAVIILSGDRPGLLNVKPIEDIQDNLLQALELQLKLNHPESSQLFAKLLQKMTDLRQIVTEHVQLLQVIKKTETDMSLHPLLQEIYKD
Text: as §1

[3] = target: T3, Human PPARα ligand-binding domain and SRC-1 (Homo sapiens, UniProt Q07869); assay: Conjugate formation between PPARα LBD and [35S]SRC-1; format: biochemical
T3 construct: made in house; host or cells: Escherichia coli (PPAR LBD); in vitro translation, TNT, Promega (SRC-1)
T3 sequence (Q07869 239-466 limits assumed): T1 sequence (Q07869 239-466 limits assumed)
Experimental: (§2) [35S]methionine-labeled form of SRC-1 containing 2-copy of LXXLL motif was prepared in vitro (TNTR, Promega Co., Madison, Wis.). 6×His-hPPARs LBD protein was incubated for 60 minutes at 4° C. in 50 mM Tris-HCl buffer (pH 7.4) containing 50 mM KCl and 1 mM dithiothreitol and 0.1% bovine serum albumin in the presence or absence of testing compound. Thereafter, […] of anti-6×His antibody (QIAGEN Co., Germany) were added and the mixture was incubated for 60 minutes at 4° C. Successively, […] of protein G Sepharose (Falmasia Biotech Co., Sweden) were added and the mixture was incubated for 60 minutes at 4° C. After washed thrice by centrifugation, protein G Sepharose was dissolved with […] of SDS-sample buffer, 20% SDS-PAGE, and then [35S]SRC-1 was detected by means of autography.

[4] = target: T4, Human PPARγ ligand-binding domain and SRC-1 (Homo sapiens, UniProt P37231); assay: Conjugate formation between PPARγ LBD and [35S]SRC-1; format: biochemical
T4 construct: made in house; host or cells: Escherichia coli (PPAR LBD); in vitro translation, TNT, Promega (SRC-1)
T4 sequence (P37231 238-503 limits assumed): T2 sequence (P37231 238-503 limits assumed)
Experimental: as §2

Row | Binding to the ligand-binding domain of PPARα [1] [%] | Binding to the ligand-binding domain of PPARγ [2] [%] | Binding to PPAR α ligand-binding domain, in words [1] | Binding to PPAR γ ligand-binding domain, in words [2] | Compound | also measured
1 | 92 | 59 | ligand | ligand | CCCCC/C=C\C/C=C\CCCCCCCC(=O)SCCNC(=O)CCNC(=O)[C@H](O)C(C)(C)COP(=O)(O)OP(=O)(O)OC[C@H]1O[C@@H](n2cnc3c(N)ncnc32)[C@H](O)[C@@H]1OP(=O)(O)O [Linoleoyl CoA] | Conjugate formation between PPARα LBD and SRC-1 ([3]; KRP-297 30 μM, Linoleoyl CoA 3 μM (0 μM: 6.1 ± 1.7)): 5.5 ± 1.5; Conjugate formation between PPARα LBD and SRC-1 ([3]; KRP-297 30 μM, Linoleoyl CoA 10 μM (0 μM: 6.1 ± 1.7)): 4.4 ± 0.8; Conjugate formation between PPARα LBD and SRC-1 ([3]; KRP-297 30 μM, Linoleoyl CoA 30 μM (0 μM: 6.1 ± 1.7)): 1.4 ± 0.1; Conjugate formation between PPARα LBD and SRC-1 ([3]; KRP-297 30 μM, Linoleoyl CoA 100 μM (0 μM: 6.1 ± 1.7)): 0.9 ± 0.3; Inhibition of conjugate formation of SRC-1 with PPAR α, in words ([3]; conjugate formation due to ligands KRP-297 and linoleic acid): dose-dependently inhibited; Conjugate formation between PPARα LBD and SRC-1 ([3]; linoleic acid 30 μM, Linoleoyl CoA 3 μM (0 μM: 5.3 ± 1.9)): 6.1 ± 2.2; Conjugate formation between PPARα LBD and SRC-1 ([3]; linoleic acid 30 μM, Linoleoyl CoA 10 μM (0 μM: 5.3 ± 1.9)): 2.4 ± 0.8; Conjugate formation between PPARα LBD and SRC-1 ([3]; linoleic acid 30 μM, Linoleoyl CoA 30 μM (0 μM: 5.3 ± 1.9)): 1.2 ± 0.4; Conjugate formation between PPARα LBD and SRC-1 ([3]; linoleic acid 30 μM, Linoleoyl CoA 100 μM (0 μM: 5.3 ± 1.9)): 0.9 ± 0.3; Conjugate formation between PPARγ LBD and SRC-1 ([4]; BRL-49653 30 μM, Linoleoyl CoA 3 μM (0 μM: 4.8 ± 0.7)): 4.9 ± 0.6; Conjugate formation between PPARγ LBD and SRC-1 ([4]; BRL-49653 30 μM, Linoleoyl CoA 10 μM (0 μM: 4.8 ± 0.7)): 4.8 ± 1.9; Conjugate formation between PPARγ LBD and SRC-1 ([4]; BRL-49653 30 μM, Linoleoyl CoA 30 μM (0 μM: 4.8 ± 0.7)): 1.5 ± 0.5; Conjugate formation between PPARγ LBD and SRC-1 ([4]; BRL-49653 30 μM, Linoleoyl CoA 100 μM (0 μM: 4.8 ± 0.7)): 1.0 ± 0.1; Inhibition of conjugate formation of SRC-1 with PPAR γ, in words ([4]; conjugate formation due to ligands BRL-49,653 and linoleic acid): dose-dependently inhibited; Conjugate formation between PPARγ LBD and SRC-1 ([4]; linoleic acid 30 μM, Linoleoyl CoA 3 μM (0 μM: 4.5 ± 0.7)): 4.2 ± 0.3; Conjugate formation between PPARγ LBD and SRC-1 ([4]; linoleic acid 30 μM, Linoleoyl CoA 10 μM (0 μM: 4.5 ± 0.7)): 2.7 ± 1.1; Conjugate formation between PPARγ LBD and SRC-1 ([4]; linoleic acid 30 μM, Linoleoyl CoA 30 μM (0 μM: 4.5 ± 0.7)): 1.9 ± 0.8; Conjugate formation between PPARγ LBD and SRC-1 ([4]; linoleic acid 30 μM, Linoleoyl CoA 100 μM (0 μM: 4.5 ± 0.7)): 1.3 ± 0.4
2 | 70 | 45 | ligand | ligand | CCCCCCCCCCCCCC(=O)SCCNC(=O)CCNC(=O)[C@H](O)C(C)(C)COP(=O)(O)OP(=O)(O)OC[C@H]1O[C@@H](n2cnc3c(N)ncnc32)[C@H](O)[C@@H]1OP(=O)(O)O [Myristoyl CoA] | 
3 | 83 | 72 | ligand | ligand | CCCCCCCCCCCCCCCC(=O)SCCNC(=O)CCNC(=O)[C@H](O)C(C)(C)COP(=O)(O)OP(=O)(O)OC[C@H]1O[C@@H](n2cnc3c(N)ncnc32)[C@H](O)[C@@H]1OP(=O)(O)O [Palmitoyl CoA] | 

Continued, compound first:

Row | Compound | Binding to the ligand-binding domain of PPARα [1] [%] | Binding to the ligand-binding domain of PPARγ [2] [%] | Binding to PPAR α ligand-binding domain, in words [1] | Binding to PPAR γ ligand-binding domain, in words [2] | also measured
4 | CCCCC/C=C\C/C=C\C=C\[C@@H](O)C/C=C\CCCC(=O)O [8(S)-Hydroxyeicosatetraenoic acid, 8(S)-hydroxyeicosatetraenoic acid, reference compound] | 99 |  |  |  | 
5 | CCCCC/C=C/C=C1/C(=O)C=C[C@@H]1C/C=C\CCCC(=O)O [15-Deoxy-Δ^12,14-prostaglandin J2, 15-deoxy-Δ^12,14-prostaglandin J2, reference compound] |  | 93 |  |  | 
6 | CCCCC/C=C\C/C=C\C/C=C\C/C=C\CCCC(=O)SCCNC(=O)CCNC(=O)[C@H](O)C(C)(C)COP(=O)(O)OP(=O)(O)OC[C@H]1O[C@@H](n2cnc3c(N)ncnc32)[C@H](O)[C@@H]1OP(=O)(O)O [Arachidonoyl CoA] | 54 | 46 | ligand | ligand | 
7 | CCCCCCCC/C=C\CCCCCCCC(=O)SCCNC(=O)CCNC(=O)[C@H](O)C(C)(C)COP(=O)(O)OP(=O)(O)OC[C@H]1O[C@@H](n2cnc3c(N)ncnc32)[C@H](O)[C@@H]1OP(=O)(O)O [Oleoyl CoA] | 95 | 52 | ligand | ligand | 
8 | CCCCCCCCCCCCCCCCCC(=O)SCCNC(=O)CCNC(=O)[C@H](O)C(C)(C)COP(=O)(O)OP(=O)(O)OC[C@H]1O[C@@H](n2cnc3c(N)ncnc32)[C@H](O)[C@@H]1OP(=O)(O)O [Stearoyl CoA] | 94 | 89 | ligand | ligand | 
